# From US8106055B2, “Substituted amide compounds” (Gruenenthal GmbH, priority 2007, dated 2012)
# Molecular target: T1, human μ opiate receptor (Homo sapiens, UniProt P35372)
# T1 construct: purchased PerkinElmer Life Sciences, Zaventem, Belgium RB-HOM; host or cells: CHO-K1 cells (membrane preparation)
# Assay: Affinity for the human μ opiate receptor ([3H]-naloxone displacement, CHO-K1 receptor membrane preparation, SPA)
# Type: binding
# Settings: test concentration of 1 μM
# Outline: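 At 1 μmol/l, compounds were scored for % displacement of 1 nmol/l [3H]-naloxone from CHO-K1-expressed human μ opiate receptor in a homogeneous SPA format (90 min, room temperature).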
# T1 sequence (P35372 whole entry): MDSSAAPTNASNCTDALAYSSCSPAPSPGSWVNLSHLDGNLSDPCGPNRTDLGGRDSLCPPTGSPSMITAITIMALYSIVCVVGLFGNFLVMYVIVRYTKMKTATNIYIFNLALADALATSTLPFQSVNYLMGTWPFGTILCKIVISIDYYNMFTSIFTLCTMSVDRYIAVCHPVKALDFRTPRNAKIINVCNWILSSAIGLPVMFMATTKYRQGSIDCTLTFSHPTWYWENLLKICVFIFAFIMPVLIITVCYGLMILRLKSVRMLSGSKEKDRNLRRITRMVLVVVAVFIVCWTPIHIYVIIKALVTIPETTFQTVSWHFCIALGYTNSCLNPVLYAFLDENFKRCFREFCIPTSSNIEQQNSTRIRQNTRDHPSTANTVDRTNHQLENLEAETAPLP
smiles,measurement,value
COc1cc(C)c(S(=O)(=O)N(C)CCOCC(=O)NC2CCC(C(c3ccc(F)cc3)N(C)C)CC2)c(C)c1 (stereo not drawn) [Example 422],"μ (binding on the μ opioid receptor, % inhibition)",43%
CN(C)C(c1ccc(F)cc1)C1CCC(NC(=O)COC2CCCN(S(=O)(=O)c3ccccc3)C2)CC1 (stereo not drawn) [Example 423],"μ (binding on the μ opioid receptor, % inhibition)",47%
CN(C)C(c1ccc(F)cc1)C1CCC(CNC(=O)COCC2CCCN(S(=O)(=O)c3ccccc3)C2)CC1 (stereo not drawn) [Example 424],"μ (binding on the μ opioid receptor, % inhibition)",39%
CN(C)C(c1ccc(Cl)cc1)C1CCC(CCNC(=O)COCC2CCCN(S(=O)(=O)c3ccccc3)C2)CC1 (stereo not drawn) [Example 425],"μ (binding on the μ opioid receptor, % inhibition)",48%
CN(C)C(c1ccc(Cl)cc1)C1CCC(CCNC(=O)COCCN(Cc2ccccc2)S(=O)(=O)c2ccccc2)CC1 (stereo not drawn) [Example 426],"μ (binding on the μ opioid receptor, % inhibition)",48%
COc1cc(C)c(S(=O)(=O)N2CCC(OCC(=O)NCC3CCC(C(c4ccc(F)cc4)N(C)C)CC3)C2)c(C)c1C (stereo not drawn) [Example 427],"μ (binding on the μ opioid receptor, % inhibition)",50%
COc1cc(C)c(S(=O)(=O)N2CCC(OCC(=O)NCC3CCC(C(c4ccc(Cl)cc4)N(C)C)CC3)C2)c(C)c1C (stereo not drawn) [Example 428],"μ (binding on the μ opioid receptor, % inhibition)",49%
COc1cc(C)c(S(=O)(=O)N2CCN(CCOCC(=O)NCC3CCC(C(c4ccc(Cl)cc4)N(C)C)CC3)CC2)c(C)c1C (stereo not drawn) [Example 429],"μ (binding on the μ opioid receptor, % inhibition)",54%
COc1ccc(S(=O)(=O)N2CCC(OCC(=O)NCCC3CCC(C(c4ccc(F)cc4)N(C)C)CC3)C2)cc1OC (stereo not drawn) [Example 430],"μ (binding on the μ opioid receptor, % inhibition)",56%
CN(C)C(c1ccc(Cl)cc1)C1CCC(CCNC(=O)COC2CCN(S(=O)(=O)c3cccc(C(F)(F)F)c3)C2)CC1 (stereo not drawn) [Example 431],"μ (binding on the μ opioid receptor, % inhibition)",45%
Cc1cc(C)c(S(=O)(=O)N2CCC(OCC(=O)NCC3CCC(C(c4ccc(F)cc4)N(C)C)CC3)C2)c(C)c1 (stereo not drawn) [Example 432],"μ (binding on the μ opioid receptor, % inhibition)",56%
CN(C)C(c1ccc(F)cc1)C1CCC(CNC(=O)COCCN2CCN(S(=O)(=O)c3ccccc3)CC2)CC1 (stereo not drawn) [Example 433],"μ (binding on the μ opioid receptor, % inhibition)",46%
CCN(CCOCC(=O)NCCC1CCC(C(c2ccc(Cl)cc2)N(C)C)CC1)S(=O)(=O)c1c(C)cc(OC)c(C)c1C (stereo not drawn) [Example 434],"μ (binding on the μ opioid receptor, % inhibition)",46%
COc1cc(C)c(S(=O)(=O)N2CCCC(OCC(=O)NC3CCC(C(c4ccc(F)cc4)N(C)C)CC3)C2)c(C)c1C (stereo not drawn) [Example 435],"μ (binding on the μ opioid receptor, % inhibition)",48%
COc1cc(C)c(S(=O)(=O)N(CCOCC(=O)NCCC2CCC(C(c3cccc(F)c3)N(C)C)CC2)Cc2ccccc2)c(C)c1C (stereo not drawn) [Example 436],"μ (binding on the μ opioid receptor, % inhibition)",57%
CN(C)C(c1ccc(F)cc1)C1CCC(NC(=O)COCCN(C)S(=O)(=O)c2cccc(C(F)(F)F)c2)CC1 (stereo not drawn) [Example 438],"μ (binding on the μ opioid receptor, % inhibition)",51%
CN(C)C(c1ccc(F)cc1)C1CCC(CNC(=O)COCCN(C)S(=O)(=O)c2ccc(OC(F)(F)F)cc2)CC1 (stereo not drawn) [Example 439],"μ (binding on the μ opioid receptor, % inhibition)",50%
CN(C)C(c1ccc(Cl)cc1)C1CCC(CCNC(=O)COC2CCN(S(=O)(=O)c3ccc(F)cc3)C2)CC1 (stereo not drawn) [Example 440],"μ (binding on the μ opioid receptor, % inhibition)",47%
COc1cc(C)c(S(=O)(=O)N2CCC(OCC(=O)NC3CCC(C(c4ccc(F)cc4)N(C)C)CC3)C2)c(C)c1 (stereo not drawn) [Example 441],"μ (binding on the μ opioid receptor, % inhibition)",49%
CN(C)C(c1ccc(Cl)cc1)C1CCC(CCNC(=O)COCCN(C)S(=O)(=O)c2c(Cl)cc(Cl)cc2Cl)CC1 (stereo not drawn) [Example 442],"μ (binding on the μ opioid receptor, % inhibition)",54%
CN(C)C(c1ccc(Cl)cc1)C1CCC(CCNC(=O)COC2CCN(S(=O)(=O)c3ccccc3)CC2)CC1 (stereo not drawn) [Example 443],"μ (binding on the μ opioid receptor, % inhibition)",45%
CN(C)C(c1cccc(F)c1)C1CCC(CCNC(=O)COC2CCN(S(=O)(=O)c3ccccc3)CC2)CC1 (stereo not drawn) [Example 444],"μ (binding on the μ opioid receptor, % inhibition)",56%
CN(C)C(CCc1ccccc1)C1CCC(CNC(=O)COCCN(C)S(=O)(=O)c2ccc(Cl)cc2)CC1 (stereo not drawn) [Example 445],"μ (binding on the μ opioid receptor, % inhibition)",44%
CN(C)C(c1ccc(F)cc1)C1CCC(CCNC(=O)COCCN(C)S(=O)(=O)c2ccc(OC(F)(F)F)cc2)CC1 (stereo not drawn) [Example 446],"μ (binding on the μ opioid receptor, % inhibition)",51%
Cc1ccc(S(=O)(=O)N2CCC(OCC(=O)NCC3CCC(C(c4ccc(F)cc4)N(C)C)CC3)C2)cc1 (stereo not drawn) [Example 447],"μ (binding on the μ opioid receptor, % inhibition)",44%
Cc1ccc(S(=O)(=O)N(C)CCOCC(=O)NC2CCC(C(c3ccc(F)cc3)N(C)C)CC2)cc1 (stereo not drawn) [Example 448],"μ (binding on the μ opioid receptor, % inhibition)",41%
COc1cc(C)c(S(=O)(=O)N2CCCC(OCC(=O)NCC3CCC(C(c4ccc(Cl)cc4)N(C)C)CC3)C2)c(C)c1C (stereo not drawn) [Example 449],"μ (binding on the μ opioid receptor, % inhibition)",46%
